Assay [1] deals with T1, West Nile Virus (WNV) NS2B-NS3 protease (West Nile virus, UniProt Q9Q6P4).
T1 construct: NS2B1423-1470); purchased R&D 2907-SE-020
The assay is described as follows: WNV protease inhibition assay. Format: biochemical. To be noted: Table 4; letter codes for IC50. The source says: WNV protease inhibition assay

The subject of a further assay is ZIKV replicon. As to the kind of experiment: ZIKV replication inhibition assay (NanoLuc replicon in Vero cells). To be noted: 72 h.
The mark [2] stands for this setting: Zika virus, Vero, read-out: ZIKA Cell_Nanoluc.
Where [3] appears, read: Zika virus, Vero, read-out: ZIKA Cell_Nanoluc, Vero cells with stable ZIKV replicon, 72 h, Nano-Glo readout.

SMILES strings stand for the structures. pEC50, pIC50: −log10 of the molar value. Read-outs that look alike come from different tables or passages of the source. Where only a bound is given, the exact number is not on record here.

IC50 and EC50 data for 23 compounds are collected here from patent publication EP4563146A1 (IRBM S.P.A., priority 2023, dated 2025).

T1 sequence (Q9Q6P4 1423-1470): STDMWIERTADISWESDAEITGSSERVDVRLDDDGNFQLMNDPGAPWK
T1 sequence (Q9Q6P4 1506-1689): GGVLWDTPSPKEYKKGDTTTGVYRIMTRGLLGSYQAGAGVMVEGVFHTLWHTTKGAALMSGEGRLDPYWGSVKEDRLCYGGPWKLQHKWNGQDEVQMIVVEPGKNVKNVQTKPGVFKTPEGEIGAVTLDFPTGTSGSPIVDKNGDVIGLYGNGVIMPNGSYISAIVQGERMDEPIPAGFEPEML

For orientation: pIC50 means the negative decadic logarithm of the IC50, by convention in mol/L. A higher pIC50 goes with a small IC50. In turn, `Cc1noc(C)c1CC(=O)Nc1cc(NC(=O)[N-]c2c[n+]([C@H]3CC[C@H](CN(C)C)CC3)no2)cc(C(F)(F)F)c1` [Example 197, (3-((1R,4R)-4-((Dimethylamino)methyl)-cyclohexyl)-1,2,3-oxadiazol-3-ium-5-yl)((3-(2-(3,5-dimethylisoxazol-4-yl)acetamido)-5-(trifluoromethyl)phenyl)carbamoyl)amide] showed a pIC50 in assay [1] of 4.70 to 6.00. Moreover, in the assay with ZIKV replicon (setting [2]), the pEC50 was more than 7.00.

Consider `O=C([N-]c1c[n+](C[C@H]2CC[C@H](c3cncnc3)CC2)no1)Nc1ccnc(C(F)(F)F)c1` [Example 187, (3-(((1R,4R)-4-(Pyrimidin-5-yl)cyclohexyl)-methyl)-1,2,3-oxadiazol-3-ium-5-yl)((2-(trifluoromethyl)pyridin-4-yl)carbamoyl)amide], for which the pIC50 in assay [1] is 6.00 to 7.00. Besides, the pEC50 in the assay with ZIKV replicon (setting [2]) is 6.00 to 7.00.

In the case of `CCC(C(=O)Nc1cc(NC(=O)[N-]c2c[n+]([C@H]3CC[C@H](CN(C)C)CC3)no2)cc(C(F)(F)F)c1)c1ccccc1` (stereo partly drawn) [Example 165, (3-((1R,4R)-4-((Dimethylamino)methyl)-cyclohexyl)-1,2,3-oxadiazol-3-ium-5-yl)((3-(2-phenylbutanamido)-5-(trifluoromethyl)phenyl)-carbamoyl)amide], in assay [1], the pIC50 is 6.00 to 7.00. For the same compound, in the assay with ZIKV replicon (setting [2]), the pEC50 was 6.00 to 7.00.

For the compound `Cc1ncccc1-c1ccc(C[n+]2cc([N-]C(=O)Nc3ccnc(C(F)(F)F)c3)on2)cc1` [Example 258, (3-(4-(2-Methylpyridin-3-yl)benzyl)-1,2,3-oxadiazol-3-ium-5-yl)((2-(trifluoromethyl)pyridin-4-yl)carbamoyl)amide], the pIC50 in assay [1] is more than 7.00. In addition, the pEC50 in the assay with ZIKV replicon (setting [3]) is more than 7.00.

As for `Cc1ncnc(C)c1-c1ccc(C[n+]2cc([N-]C(=O)Nc3cc(C(F)(F)F)c4ncccc4c3)on2)cc1` [Example 272, (3-(4-(4,6-Dimethylpyrimidin-5-yl)benzyl)-1,2,3-oxadiazol-3-ium-5-yl)((8-(trifluoromethyl)-quinolin-6-yl)carbamoyl)amide], in assay [1], the pIC50 was 4.70 to 6.00. In the assay on ZIKV replicon (setting [3]), the pEC50 is 6.00 to 7.00.

Turning to `Cc1ncnc(C)c1C1=CCC(C[n+]2cc([N-]C(=O)Nc3ccnc(C(F)(F)F)c3)on2)CC1` (stereo not shown) [Example 216, (3-((4-(4,6-Dimethylpyrimidin-5-yl)cyclohex-3-en-1-yl)methyl)-1,2,3-oxadiazol-3-ium-5-yl)((2-(trifluoromethyl)pyridin-4-yl)carbamoyl)amide], the pIC50 in assay [1] is 6.00 to 7.00. Moreover, the pEC50 in the assay with ZIKV replicon (setting [3]) was 4.70 to 6.00.

In assay [1], `Cc1ccccc1CC(=O)Nc1cc(NC(=O)[N-]c2c[n+]([C@@H]3CCC[C@H](C(=O)N(C)C)C3)no2)cc(C(F)(F)F)c1` (racemic) [Example 253, rac-(3-((1R,3S)-3-(Dimethylcarbamoyl)-cyclohexyl)-1,2,3-oxadiazol-3-ium-5-yl)((3-(2-(o-tolyl)-acetamido)-5-(trifluoromethyl)phenyl)-carbamoyl)amide] showed a pIC50 of 6.00 to 7.00. For the same compound, the pEC50 in the assay on ZIKV replicon (setting [3]) is 4.70 to 6.00.

For the compound `CNC(=O)c1ccc(NC(=O)[N-]c2c[n+](Cc3ccc(-c4c(C)ncnc4C)cc3)no2)cc1C(F)(F)F` [Example 273, (3-(4-(4,6-Dimethylpyrimidin-5-yl)benzyl)-1,2,3-oxadiazol-3-ium-5-yl)((4-(methyl-carbamoyl)-3-(trifluoromethyl)phenyl)carbamoyl)amide], the pIC50 in assay [1] was 6.00 to 7.00. The pEC50 in the assay with ZIKV replicon (setting [3]) was 4.70 to 6.00.

In assay [1], `CN(C)C[C@H]1CC[C@H]([n+]2cc([N-]C(=O)Nc3cc(NC(=O)Cc4cccc(F)c4F)cc(C(F)(F)F)c3)on2)CC1` [Example 169, ((3-(2-(2,3-Difluorophenyl)acetamido)-5-(trifluoromethyl)phenyl)carbamoyl)(3-((1R,4R)-4-((dimethylamino)methyl)cyclohexyl)-1,2,3-oxadiazol-3-ium-5-yl)amide] had a pIC50 of more than 7.00. Moreover, the pEC50 in the assay on ZIKV replicon (setting [2]) is 6.00 to 7.00.

The compound `CN(C)[C@H]1CCC[C@@H]([n+]2cc([N-]C(=O)Nc3ccnc(C(F)(F)F)c3)on2)C1` [Example 204, (3-((1R,3S)-3-(Dimethylamino)cyclohexyl)-1,2,3-oxadiazol-3-ium-5-yl)((2-(trifluoromethyl)-pyridin-4-yl)carbamoyl)amide] had a pIC50 in assay [1] of 6.00 to 7.00. In the assay with ZIKV replicon (setting [3]), the pEC50 is 4.70 to 6.00.

For the compound `COC(=O)[C@H]1CC[C@H]([n+]2cc([N-]C(=O)Nc3cc(NC(=O)Cc4ccccc4C)cc(C(F)(F)F)c3)on2)CC1` [Example 227, (3-((1R,4R)-4-(Methoxycarbonyl)cyclohexyl)-1,2,3-oxadiazol-3-ium-5-yl)((3-(2-(o-tolyl)-acetamido)-5-(trifluoromethyl)phenyl)carbamoyl) amide], the pIC50 in assay [1] is more than 7.00. Besides, the pEC50 in the assay with ZIKV replicon (setting [2]) was 4.70 to 6.00.

`CN(C)C[C@H]1CC[C@H]([n+]2cc([N-]C(=O)Nc3cc(NC(=O)Cc4cn(C)c5ccccc45)cc(C(F)(F)F)c3)on2)CC1` [Example 161, (3-((1R,4R)-4-((dimethylamino)methyl)-cyclohexyl)-1,2,3-oxadiazol-3-ium-5-yl)((3-(2-(1-methyl-1H-indol-3-yl)acetamido)-5-(trifluoromethyl)phenyl)carbamoyl)amide] gave a pIC50 in assay [1] of 6.00 to 7.00. In the assay with ZIKV replicon (setting [2]), the pEC50 is 4.70 to 6.00.

Regarding `Cc1ccccc1CC(=O)Nc1cc(NC(=O)[N-]c2c[n+]([C@@H]3CCCC(CO)C3)no2)cc(C(F)(F)F)c1` (stereo partly drawn) [Example 230, (3-((1R)-3-(Hydroxymethyl)cyclohexyl)-1,2,3-oxadiazol-3-ium-5-yl)((3-(2-(o-tolyl)acetamido)-5-(trifluoromethyl)phenyl)carbamoyl)amide], in assay [1], the pIC50 is more than 7.00. The pEC50 in the assay with ZIKV replicon (setting [3]) is 4.70 to 6.00.

In assay [1], `CN(C)CC1CCC([n+]2cc([N-]C(=O)Nc3cc(NC(=O)Cc4ccccc4C(=O)O)cc(C(F)(F)F)c3)on2)CC1` [Example 159, ((3-(2-(2-Carboxyphenyl)acetamido)-5-(trifluoromethyl)phenyl)carbamoyl)(3-((1R,4R)-4-((dimethylamino)methyl)cyclohexyl)-1,2,3-oxadiazol-3-ium-5-yl)amide] had a pIC50 of more than 7.00. In addition, the pEC50 with ZIKV replicon (read-out: ZIKA Cell_Nanoluc, Vero cells with stable ZIKV replicon, Nano-Glo readout) was 4.70 to 6.00.

Regarding `Cc1nnccc1-c1ccc(C[n+]2cc([N-]C(=O)Nc3ccnc(C(F)(F)F)c3)on2)cc1` [Example 188, (3-(4-(3-Methylpyridazin-4-yl)benzyl)-1,2,3-oxadiazol-3-ium-5-yl)((2-(trifluoromethyl)-pyridin-4-yl)carbamoyl)amide], the pIC50 in assay [1] is more than 7.00. Also, in the assay on ZIKV replicon (setting [3]), the pEC50 was more than 7.00.

In turn, `Cc1cnn(C2COC2)c1-c1ccc(C[n+]2cc([N-]C(=O)Nc3ccnc(C(F)(F)F)c3)on2)cc1` [Example 239, (3-((4-(4-Methyl-2-(oxetan-3-yl)pyrazol-3-yl]phenyl)methyl)oxadiazol-3-ium-5-yl)-((2-(trifluoromethyl)pyridin-4-yl)carbamoyl)-azanide] had a pIC50 in assay [1] of more than 7.00. The pEC50 in the assay on ZIKV replicon (setting [2]) was more than 7.00.

Turning to `CN(C)C[C@H]1CC[C@H]([n+]2cc([N-]C(=O)Nc3cc(NC(=O)C(C)(C)c4ccccc4)cc(C(F)(F)F)c3)on2)CC1` [Example 208, (3-((1R,4R)-4-((Dimethylamino)methyl)-cyclohexyl)-1,2,3-oxadiazol-3-ium-5-yl)((3-(2-methyl-2-phenylpropanamido)-5-(trifluoromethyl)phenyl)carbamoyl)amide], the pIC50 in assay [1] was 6.00 to 7.00. Further, the pEC50 with ZIKV replicon (setting [2]) is 4.70 to 6.00.

With `Cc1ncncc1-c1ccc(C[n+]2cc([N-]C(=O)Nc3ccnc(C(F)(F)F)c3)on2)cc1` [Example 225, (3-(4-(4-Methylpyrimidin-5-yl)benzyl)-1,2,3-oxadiazol-3-ium-5-yl)((2-(trifluoromethyl)pyridin-4-yl)carbamoyl)amide], the pIC50 in assay [1] was 6.00 to 7.00. In the assay with ZIKV replicon (setting [3]), the pEC50 was 6.00 to 7.00.

In the case of `CN(C)C[C@H]1CC[C@H]([n+]2cc([N-]C(=O)Nc3cc(NC(=O)Cc4cccc(CC(N)=O)c4)cc(C(F)(F)F)c3)on2)CC1` [Example 162, ((3-(2-(3-(2-Amino-2-oxoethyl)phenyl)-acetamido)-5-(trifluoromethyl)phenyl)-carbamoyl)(3-((1R,4R)-4-((dimethylamino)-methyl)cyclohexyl)-1,2,3-oxadiazol-3-ium-5-yl)amide], in assay [1], the pIC50 is 6.00 to 7.00. In the assay with ZIKV replicon (setting [2]), the pEC50 was 4.70 to 6.00.

In assay [1], `Cc1nsc(C)c1-c1ccc(C[n+]2cc([N-]C(=O)Nc3ccnc(C(F)(F)F)c3)on2)cc1` [Example 211, (3-(4-(3,5-Dimethylisothiazol-4-yl)benzyl)-1,2,3-oxadiazol-3-ium-5-yl)((2-(trifluoromethyl)-pyridin-4-yl)carbamoyl)amide] showed a pIC50 of 6.00 to 7.00. In addition, the pEC50 with ZIKV replicon (setting [3]) is 4.70 to 6.00.

With `O=C([N-]c1c[n+](CC23CCC(c4cncnc4)(CC2)C3)no1)Nc1ccnc(C(F)(F)F)c1` [Example 185, (3-((4-(Pyrimidin-5-yl)bicyclo[2.2.1]heptan-1-yl)methyl)-1,2,3-oxadiazol-3-ium-5-yl)((2-(trifluoromethyl)pyridin-4-yl)carbamoyl)amide], the negative-log IC50 (pIC50) in assay [1] was 6.00 to 7.00. The pEC50 in the assay on ZIKV replicon (setting [3]) was 4.70 to 6.00.

In the case of `CN(C)[C@@H]1CCC[C@@H]([n+]2cc([N-]C(=O)Nc3cc(NC(=O)Cc4ccccc4)cc(C(F)(F)F)c3)on2)C1` [Example 173, (3-((1R,3R)-3-(Dimethylamino)cyclohexyl)-1,2,3-oxadiazol-3-ium-5-yl)((3-(2-phenylacetamido)-5-(trifluoromethyl)phenyl)-carbamoyl)amide], the pIC50 in assay [1] is more than 7.00. For the same compound, in the assay with ZIKV replicon (setting [3]), the pEC50 is 6.00 to 7.00.

Consider `CN(C)C[C@H]1CC[C@H]([n+]2cc([N-]C(=O)Nc3cc(NC(=O)Cc4c(F)cccc4F)cc(C(F)(F)F)c3)on2)CC1` [Example 199, ((3-(2-(2,6-Difluorophenyl)acetamido)-5-(trifluoromethyl)phenyl)carbamoyl)(3-((1R,4R)-4-((dimethylamino)methyl)cyclohexyl)-1,2,3-oxadiazol-3-ium-5-yl)amide], for which the negative-log IC50 (pIC50) in assay [1] was 6.00 to 7.00. Further, in the assay with ZIKV replicon (setting [2]), the pEC50 is more than 7.00.
